Experimental data: patent EP0398230B1, “Antiviral, highly water soluble, stable, crystalline salts of 2',3'-dideoxyinoside monohydrate, 2',3'-dideoxy-2',3'-didehydrothymidine monohydrate and 2',3'-dideoxy-2'-fluoroinosine hemihydrate” (priority 1989, dated 1990)
Where two headings read alike, the source gives them in different places.

Legend:
[1] = 5 weeks at 70°C
[2] = physchem; conditions: water, pH 10, water, thermodynamic from solid

SMILES: OC[C@@H]1CC[C@H](n2cnc3c(O)ncnc32)O1.[Na] [Na-DDI·H2O, sodium-2',3'-dideoxyinosine]
- Solid State Stability [1]: No loss
- Aqueous Solution Stability, loss (1 week at 50°C): 5%
- Aqueous Solution Stability, loss (1 week at 70°C): 10%

SMILES: O=c1[nH]cnc2c1ncn2[C@@H]1O[C@H](CO)C[C@@H]1F [Sodium F-ddI Hemihydrate, sodium-2',3'-dideoxy-2'-fluoroinosine]
- solubility [2]: ~400 mg/mL
